Entries after “also recorded” stand apart in the source; their conditions may differ. Structures can show the parent of a compound that is named as a salt.
Experiments:
[1] = Aqueous solubility; assay type: physicochemical
Experimental: Aqueous solubility was determined by suspending sufficient compound in water water to give a maximum final concentration of 100 mg/mL. The solution was stirred for 24 hours at room temperature (25° C.±5° C.) on a magnetic stirrer using a magnetic stir bar. The final pH of the suspension was measured after 24 hours with a standard pH meter. The suspension was filtered by centrifugation through a ≤0.45 μm PVDF filter. The filtrate was then diluted 1:500 using a solution of ethanol: water (1:1). Quantification was by HPLC using a previously developed HPLC method (Table 4). A standard curve with a concentration range from 0.001 mg/mL-0.3 mg/ml. The solubility was automatically calculated using the peak area of the main peak in the chromatogram.
Aqueous solubility was determined by suspending sufficient compound in water to give a maximum final concentration of ≥10 mg/mL of the parent free-form of the compound. The suspension was equilibrated at 25° C. for 24 hours then the pH was measured. The suspension was then filtered through a glass fibre C filter. The filtrate was then diluted by an appropriate factor e.g. 101. Quantitation was by HPLC with reference to a standard solution of approximately 0.25 mg/mL in DMSO. Different volumes of the standard, diluted and undiluted sample solutions were injected. […]

[2] = Dynamic Vapour Sorption (DVS) hygroscopicity; assay type: physicochemical; settings: for Hygroscopicity, weight increase: 0%-RH to 90%-RH at 25° C.; for Hygroscopicity: increase in mass when relative humidity is raised from 0%-RH to 90%-RH at 25° C.
Experimental: For each salt formation experiment 5-ethyl-4-methyl-N-[4-[(2S) morpholin-2-yl]phenyl]-1H-pyrazole-3-carboxamide (approx. 450 mg) was dissolved in dioxane (approx. 90 mL) at elevated temperature (approx. 90° C.) in a 100 mL glass vial. The clear solution was then cooled to 60° C. (to approx. 40° C. for adipic acid) prior to the addition of approx. 1.1 equivalents (approx. 0.55 equivalents for sulfuric acid) of a 0.5 M (0.2 M for fumaric acid) stock solution in dioxane of the respective acid under agitation. The reaction mixture was then allowed to reach ambient temperature passively and further agitated overnight. In the cases of adipic acid, the solvent was partially evaporated at this stage to increase the yield. The solid residue was collected by filtration and rinsed with approx. 2 mL of dioxane. A sample of the wet product was analyzed by XRPD. The remainder of the product was dried in a vacuum tray dryer at 50° C./<10 mbar for 2 days prior to analysis by XRPD, DSC, TGA, and, if appropriate, also by DVS.
Moisture sorption/desorption data were collected on a DVS Advantage, a DVS Adventure, or a DVS Intrinsic (SMS Surface Measurements Systems) moisture balance system. The sorption/desorption isotherms were measured stepwise in a range from 0%-RH to 90%-RH at typically 25° C. A weight change of typically <0.001%/min was chosen as criterion to switch to the next level of relative humidity (with a maximum equilibration time of typically 24 hours, if the weight change criterion was not met). The data were corrected for the initial moisture content of the samples by taking the weight after drying of the samples at 0%-RH as zero point. The hygroscopicity of a given substance is characterized (by close analogy with the European Pharmacopoeia) by the increase in mass when the relative humidity is raised from 0%-RH to 90%-RH at 25° C.: […]

[3] = crystalline Form A, between 0-90% RH

Hygroscopicity, weight increase ([2]; re-crystallized salt forms)	Hygroscopicity ([2]; re-crystallized salt forms)	SMILES	Hygroscopicity ([2]; crude salt forms)	other results
–	–	CCc1[nH]nc(C(=O)Nc2ccc([C@H]3CNCCO3)cc2)c1C [5-ethyl-4-methyl-N-[4-[(2S)morpholin-2-yl]phenyl]-1H-pyrazole-3-carboxamide, mono hydrochloric acid salt]	–	pH of saturated aqueous solution ([1]; saturated aqueous solution after 24 hours): 5.3; solubility at 24 h ([1]; water, thermodynamic from solid, saturated aqueous solution, 24 hours at 25° C., pH 5.3): 52.8 mg/mL; relative humidity at which rate of water uptake was observed to increase ([2]; crystalline Form A): > 80 % RH; hysteresis (DVS) [2, 3]: no hysteresis; mass uptake (DVS) [2, 3]: < 0.1%
(0.2%-m/m	–	CCc1[nH]nc(C(=O)Nc2ccc([C@H]3CNCCO3)cc2)c1C [Adipic acid, 5-ethyl-4-methyl-N-[4-[(2S)morpholin-2-yl]phenyl]-1H-pyrazole-3-carboxamide]	–	–
–	–	CCc1[nH]nc(C(=O)Nc2ccc([C@H]3CNCCO3)cc2)c1C [Citric acid, 5-ethyl-4-methyl-N-[4-[(2S)morpholin-2-yl]phenyl]-1H-pyrazole-3-carboxamide]	Very hygroscopic; also recorded: (deliquescent) (deliquescent: sufficient water is adsorbed to form a liquid)	–
–	–	CCc1[nH]nc(C(=O)Nc2ccc([C@H]3CNCCO3)cc2)c1C [Glycolic acid, 5-ethyl-4-methyl-N-[4-[(2S)morpholin-2-yl]phenyl]-1H-pyrazole-3-carboxamide]	Very hygroscopic; also recorded: (deliquescent) (deliquescent: sufficient water is adsorbed to form a liquid)	–
(<0.1%-m/m	Non-hygroscopic	CCc1[nH]nc(C(=O)Nc2ccc([C@H]3CNCCO3)cc2)c1C [Hydrochloric acid, 5-ethyl-4-methyl-N-[4-[(2S)morpholin-2-yl]phenyl]-1H-pyrazole-3-carboxamide]	–	Hygroscopicity, weight increase ([2]; crude salt forms): (0.5%-m/m weight
(0.4%-m/m	–	CCc1[nH]nc(C(=O)Nc2ccc([C@H]3CNCCO3)cc2)c1C [L(+)-Tartaric acid, 5-ethyl-4-methyl-N-[4-[(2S)morpholin-2-yl]phenyl]-1H-pyrazole-3-carboxamide]	–	–
–	–	CCc1[nH]nc(C(=O)Nc2ccc([C@H]3CNCCO3)cc2)c1C [Methanesulfonic acid, 5-ethyl-4-methyl-N-[4-[(2S)morpholin-2-yl]phenyl]-1H-pyrazole-3-carboxamide]	Hygroscopic	phase transformation (relative humidity) ([2]; crude salt form, at 25° C.): at >80%-RH at; Hygroscopicity, weight increase ([2]; crude salt forms): (8.5%-m/m weight
(0.2%-m/m	–	CCc1[nH]nc(C(=O)Nc2ccc([C@H]3CNCCO3)cc2)c1C [Phosphoric acid, 5-ethyl-4-methyl-N-[4-[(2S)morpholin-2-yl]phenyl]-1H-pyrazole-3-carboxamide]	–	–
(0.1%-m/m	Non-hygroscopic	CCc1[nH]nc(C(=O)Nc2ccc([C@H]3CNCCO3)cc2)c1C [Sulfuric acid, 5-ethyl-4-methyl-N-[4-[(2S)morpholin-2-yl]phenyl]-1H-pyrazole-3-carboxamide]	–	–
(<0.1%-m/m	Non-hygroscopic	CCc1[nH]nc(C(=O)Nc2ccc([C@H]3CNCCO3)cc2)c1C [p-Toluenesulfonic acid, 5-ethyl-4-methyl-N-[4-[(2S)morpholin-2-yl]phenyl]-1H-pyrazole-3-carboxamide]	–	–

— patent US12692256B2, “Salts and crystalline forms of a TAAR1 agonist” (Hoffmann-La Roche Inc., priority 2020, dated 2026)
